{"source": "patent US20250340848A1", "about": "“METHODS FOR CHEMICAL REPROGRAMMING AND PLURIPOTENT STEM CELLS” (Peking University, priority 2022, published 2025)", "assay_type_in_all_cases": "cell-based, human", "key": {"[1]": {"system": "hADSCs", "assay": "Stage 1 conversion of hADSCs to epithelial-like cells, morphology (FIG. 3)", "conditions": "added in stage 1, small-molecule library screen", "procedure": "(§1) In one experiment, when converting hCiPSCs from somatic cell (e.g., hADSCs), hypoxia with 5% O2 was used in stage 1 conversion. After stage 1 conversion, cells were incubated with 21% O2. The induction medium was changed every 3-4 days. hADSCs were seeded at a density of 1×10^4 cells per well of a 12-well plate in 15% FBS-DMEM medium and would be changed into stage 1 conversion medium the next day. For stage 1 conversion, single layer epithelial-like cells induced from hADSCs would emerge at day 4-6 and approach 100% confluence at day 8-12. Then the medium was changed into stage 2 conversion medium. For stage 2 conversion, multi-layered cell colonies appeared after 8-12 days of treatment of the cells with the conversion medium, and these cell colonies would continually grow increasingly large. The medium was changed into stage 3 conversion medium after 16 days of treatment with the stage 2 conversion medium. […]\nIn stage 1, the conversion medium was changed every 3-4 days. hADSCs were seeded at a density of 1×10^4 cells per well of a 12-well plate in 15% FBS-DMEM medium and would be changed into stage I induction medium the next day. […] Conversion into epithelial-like cells can be measured by upregulation of and epithelial cell-related genes. […]"}, "[2]": {"system": "hADSCs", "assay": "Three-stage conversion of hADSCs into hCiPSCs (methods of EXAMPLE 1), numbers of hCiPSC colonies", "description": "FIG. 1 illustrates a schematic of an exemplary method for converting human somatic cells into pluripotent stem cells. The method has 3 stages. During any of the 3 stages, any cell can proliferate and give rise to progeny cells. In stage 1, a first population of cells comprising somatic cells are contacted with a first composition for about 4-12 days. The first population of cells can comprise somatic cells (e.g., fibroblasts or primary human adult adipose derived mesenchymal stromal cells (hADSCs)). During and/or subsequent to contacting the first composition, at least a subset of the cells of the first population of cells or the progenies thereof are converted into a second population of cells. The second population of cells can comprise epithelial-like cells. In stage 2, the second population of cells or the progenies thereof are then contacted with a second composition for about 4-16 days. During and/or subsequent to contacting the second composition, at least a subset of the cells of the second population of cells or the progenies thereof are converted into a third population of cells. The third population of cells can comprise intermediate plastic state cells. In stage 3, the third population of cells or the progenies thereof are contacted with a third composition for about 6-12 days. During and/or subsequent to contacting the third composition, at least a subset of the cells of the third population of cells or the progenies thereof are converted into a fourth population of cells.\nFIG. 2 illustrates a schematic of an exemplary method for converting human fibroblasts into pluripotent stem cells. The method can comprise 3 stages. During any of the 3 stages, any cell can proliferate and give rise to progeny cells. In stage 1, a first population of cells comprising fibroblasts is contacted with a first composition for about 8-10 days. During and/or subsequent to contacting the first composition, at least a subset of the cells of the first population of cells or the progenies thereof are converted into a second population of cells. The second population of cells can comprise epithelial-like cells. The epithelial-like cells express an increased amount of LIN28A, relative to the first population of cells or their progenies. In stage 2, the second population of cells or the progenies thereof are then contacted with a second composition for about 12-16 days. During and/or subsequent to contacting the second composition, at least a subset of the cells of the second population of cells or the progenies thereof are converted into a third population of cells. The third population of cells can comprise intermediate plastic state cells. The intermediate plastic state cells express both SALL4 and LIN28A. In stage 3, the third population of cells or the progenies thereof are contacted with a third composition for about 8-10 days. During and/or subsequent to contacting the third composition, at least a subset of the cells of the third population of cells or the progenies thereof are converted into a fourth population of cells. […] The second conversion medium can then be removed from the cells. […] The third stage 3 medium may allow the pluripotent stem cells or the progenies thereof to proliferate.\nas §1, with “medium.” for “medium. For stage 2 conversion, multi-layered cell colonies appeared after 8-12 days of treatment of the cells with the conversion medium, and these cell colonies would continually grow increasingly large. The medium was changed into stage 3 conversion medium after 16 days of treatment with the stage 2 conversion medium.”"}, "[3]": {"system": "hADSCs", "assay": "Example 7 chemical reprogramming of hADSCs, OCT4+ hCiPSC colonies", "conditions": "for improving reprogramming efficiency: added in stage 1", "procedure": "The stage 1 induction medium contained Knockout DMEM (Gibco) supplemented with 2% B27 supplement (Gibco), 1% Knockout Serum Replacement (KSR; Gibco), 1% GlutaMAX (Gibco), 1% nonessential amino acids (NEAA; Gibco), 1% penicillin-streptomycin, 50 μg ml-1 Vc2p, 5 mM LiCl, 1 mM nicotinamide, 40 ng ml^−1 BMP4 and the small molecules CHIR-99021 (5 μM), 616452 (10 μM), TTNPB (2 μM), SAG (0.5 μM), EPZ-5676 (2 μM), DZNep (0.05 μM), ruxolitinib (1 μM), VTP50469 (0.5 μM), AKT kinase inhibitor (1 μM), JNK-IN-8 (0.2 μM), SETD2-IN-1 (0.2 μM), AM095 free acid (0.5 μM), WM-8014 (1 μM) and A-485 (0.5 μM).\nStage 2 induction medium contained Knockout DMEM supplemented with 2% B27 supplement, 1% GlutaMAX, 1% NEAA, 1% penicillin-streptomycin, 50 μg ml^−1 Vc2p, 200 ng ml^−1 bFGF and the small molecules CHIR-99021 (5 μM), 616452 (10 μM), TTNPB (2 μM), SAG (0.5 μM), JNK-IN-8 (0.5 μM), EPZ-5676 (2 μM), DZNep (0.2 μM), ruxolitinib (1 μM), BIRB 796 (2 μM), SGC-CBP30 (2 μM), VTP50469 (0.5 μM), 5-Iodotubercidin (0.5 μM), AKT kinase inhibitor (0.2 μM), CX-4945 (1 μM), RA (5 μM) and GSK-3685032 (0.02 μM).\nStage 3 induction medium contained Knockout DMEM supplemented with 2% B27 supplement, 1% GlutaMAX, 1% NEAA, 1% penicillin-streptomycin, 5% KSR, 50 μg ml^−1 Vc2p, 20 ng ml^−1 recombinant human heregulinβ-1 (HRG) and the small molecules CHIR-99021 (1 μM), Y-27632 (10 μM), PD0325901 (1 μM) and SB-590885 (0.5 μM). Knockout DMEM containing supplements and the small molecules mentioned above served as the basal medium for stage 3. For the first 2-3 days of stage 3 induction, valproic acid sodium salt (VPA; 200 μM), tranylcypromine (10 μM), DZNep (0.2 μM), EPZ-5676 (2 μM) and PY-60 (10 μM) were added to the basal medium. For the next 2-3 days, VPA (200 μM) and PY-60 (2 μM) were added to the basal medium. Information on the small molecules, cytokines and other reagents is available in Supplementary Table 4.\nHypoxia with 5% O2 was used for stage 1 induction. After stage 1 induction, the culture was changed to 21% O2.\n(1) hADSCs and hASFs were seeded in high-glucose DMEM supplemented with 15% FBS at a density of 1.2-1.4×10^4 cells per well in 12-well plates or 0.6-0.7×10^4 cells per well in 24-well plates. The medium was changed to stage 1 induction medium the next day.\n(2) For stage 1 induction, single-layer epithelium-like cells emerged on day 4. When the epithelium-like cells reached ˜100% confluence (usually after 6-8 days of stage 1 induction for hADSCs and 8-10 days for hASFs), the medium was changed to stage 2 induction medium. For the induction of hADSCs in 24-well plates, 1 ml of stage 1 medium was added to each well (2 ml per well for 12-well plates), and there was no need to change the medium during stage 1. For the induction of hASFs, stage 1 medium was replaced with fresh medium on day 6. […]"}}}
{"smiles": "CCn1c(-c2nonc2N)nc2c(C#CCO)ncc(OCCCN)c21", "note": "[AKT Kinase Inhibitor, 3-[2-(4-amino-1,2,5-oxadiazol-3-yl)-7-(3-aminopropoxy)-1-ethylimidazo[4,5-c]pyridin-4-yl]prop-2-yn-1-ol]", "values": [{"measurement": "emergence of epithelial-like colonies", "setting": "[1]", "value": "further promoted the emergence epithelial-like colonies"}, {"measurement": "reprogramming efficiency", "setting": "[2]; AKTi and CX4945 included in the stage 2 conversion medium (Base), FIG. 18", "value": "significantly improved the reprogramming efficiency"}, {"measurement": "numbers of converted hCiPSCs", "setting": "[2]; factor removed from the stage 1 conversion medium, FIG. 4", "value": "minimal numbers of converted hCiPSCs"}]}
{"smiles": "CC(C)N(C(=O)c1cc(F)ccc1Oc1cncnc1N1CC2(CCN(CC3CCC(NS(C)(=O)=O)CC3)CC2)C1)C(C)C", "note": "(centres unmarked) [VTP50469]", "values": [{"measurement": "emergence of epithelial-like colonies", "setting": "[1]", "value": "further promoted the emergence epithelial-like colonies"}, {"measurement": "increase of the numbers of converted hCiPSCs", "setting": "[2]; added to the stage 2 conversion medium, relative to medium without it, FIGS. 7A-7B", "value": "about 7 fold"}, {"measurement": "numbers of converted hCiPSCs", "setting": "[2]; factor removed from the stage 2 conversion medium, FIG. 17", "value": "reduced the numbers of converted hCiPSCs"}, {"measurement": "numbers of converted hCiPSCs", "setting": "[2]; various combinations supplemented to stage 1 conversion medium comprising CHIR99021, 616452, TTNPB and AKT Kinase Inhibitor, FIG. 5", "value": "significantly increase the numbers of converted hCiPSCs"}]}
{"smiles": "Cc1cc(-c2ccccc2)cc(C(=O)NNS(=O)(=O)c2ccccc2)c1F", "note": "[WM8014]", "values": [{"measurement": "screening of chemical libraries targeting histone modifications during chemical reprogramming stage 1", "setting": "[3]; 1 μM screening batch, FIG. 40", "value": "top candidate"}, {"measurement": "improving reprogramming efficiency", "setting": "[3]", "value": "most effective in improving reprogramming efficiency"}]}
{"smiles": "CNC(=O)Nc1ccc2c(c1)CC[C@@]21OC(=O)N(CC(=O)N(Cc2ccc(F)cc2)[C@@H](C)C(F)(F)F)C1=O", "note": "[A485]", "values": [{"measurement": "screening of chemical libraries targeting histone modifications during chemical reprogramming stage 1", "setting": "[3]; 0.5 μM screening batch, FIG. 39", "value": "top candidate"}, {"measurement": "improving reprogramming efficiency", "setting": "[3]", "value": "most effective in improving reprogramming efficiency"}]}
